Results: US9555039B2, “Piperidine derivatives and compositions for the inhibition of nicotinamide phosphoribosyltransferase (NAMPT)” (Forma TM, LLC., priority 2011, dated 2017)
Where two headings read alike, the source gives them in different places.

How the values were obtained:
[1] = system: A2780 cells; assay: In-vitro cell proliferation assay (SRB, 72 hours); format: cell-based; conditions: Homo sapiens, sulforhodamine B (SRB) assay
How it was run: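 Background from media-only plate subtracted; inhibition relative to DMSO-treated cells, value derived by interpolation between two concentrations.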

[2] = molecular target: T1, Recombinant His-tagged NAMPT (Homo sapiens, UniProt P43490); assay: Biochemical inhibition assay: NAMPT enzymatic reaction, NMN quantified by mass spectrometry; conditions: 33 nM NAMPT, 1 μM NAM, 100 μM PRPP, 30 minutes at room temperature, read-out: Biochem IC50
T1 construct: His; host or cells: E. coli
How it was run: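 Reaction 30 min at room temperature with 1 μM NAM, 100 μM PRPP, 2.5 mM ATP (final), quenched with formic acid. NMN quantified by RapidFire electrospray MS, normalized to L-cystathionine; IC50 from percent inhibition versus DMSO.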

T1 sequence (P43490 whole entry): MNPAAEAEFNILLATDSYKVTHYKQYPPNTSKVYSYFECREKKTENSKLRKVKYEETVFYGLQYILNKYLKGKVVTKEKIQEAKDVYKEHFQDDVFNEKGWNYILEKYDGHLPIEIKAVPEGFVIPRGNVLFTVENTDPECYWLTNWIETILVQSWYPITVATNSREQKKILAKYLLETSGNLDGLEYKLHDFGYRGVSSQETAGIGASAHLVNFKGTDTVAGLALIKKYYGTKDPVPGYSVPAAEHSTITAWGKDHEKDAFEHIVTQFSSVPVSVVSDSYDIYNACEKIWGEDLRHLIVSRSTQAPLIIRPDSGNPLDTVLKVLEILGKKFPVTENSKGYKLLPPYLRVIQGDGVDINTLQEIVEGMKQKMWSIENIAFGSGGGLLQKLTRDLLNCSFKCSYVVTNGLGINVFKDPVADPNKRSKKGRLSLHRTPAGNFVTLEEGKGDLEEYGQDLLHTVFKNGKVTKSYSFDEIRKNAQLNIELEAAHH

Structure (SMILES)	IC50 [1]	IC50 ([2]; 2.5 mM ATP)	IC50 ([2]; […] ATP)
O=C(NCCCCC1CCN(C(=O)c2cccnc2)CC1)c1cc2cnccc2[nH]1 [N-(4-{1-[(pyridin-3-yl)carbonyl]piperidin-4-yl}butyl)-1H-pyrrolo[3,2-c]pyridine-2-carboxamide]	23.1 nM	98.6 nM	
O=C(NCCCCC1CCN(C(=O)c2cccnc2)CC1)c1ccc2nccn2c1 [N-(4-{1-[(pyridin-3-yl)carbonyl]piperidin-4-yl}butyl)imidazo[1,2-a]pyridine-6-carboxamide]	27.4 nM	12.7 nM	
O=C(NCCCCC1CCN(C(=O)c2cccnc2)CC1)c1cc2ccncc2s1 [N-(4-{1-[(pyridin-3-yl)carbonyl]piperidin-4-yl}butyl)thieno[2,3-c]pyridine-2-carboxamide]	27.4 nM	11.1 nM	
O=C(NCCCCC1CCN(C(=O)c2ccncc2)CC1)c1cc2cnccc2[nH]1 [N-(4-{1-[(pyridin-4-yl)carbonyl]piperidin-4-yl}butyl)-1H-pyrrolo[3,2-c]pyridine-2-carboxamide]	4.4 nM	9.7 nM	
O=C(NCCCCN1CCN(C(=O)c2cccc(Cl)c2)CC1)c1cc2cnccc2[nH]1 [N-(4-{4-[(3-chlorophenyl)carbonyl]piperazin-1-yl}butyl)-1H-pyrrolo[3,2-c]pyridine-2-carboxamide]	347 nM	106 nM	
COc1cccc(C(=O)N2CCN(CCCCNC(=O)c3cc4cnccc4[nH]3)CC2)c1 [N-(4-{4-[(3-methoxyphenyl)carbonyl]piperazin-1-yl}butyl)-1H-pyrrolo[3,2-c]pyridine-2-carboxamide]	855 nM	436 nM	
O=C(NCCC1CCN(C(=O)c2ccccc2)CC1)c1cc2cnccc2[nH]1 [N-[2-(1-benzoylpiperidin-4-yl)ethyl]-1H-pyrrolo[3,2-c]pyridine-2-carboxamide]	20000 nM	10000 nM	
O=C(NCCc1ccc(-c2ccccc2)cc1)c1cc2cnccc2[nH]1 [N-[2-(4-phenylphenyl)ethyl]-1H-pyrrolo[3,2-c]pyridine-2-carboxamide]	3980 nM	126 nM	
O=C(NCCCCC1CCN(C(=O)c2ccccc2)CC1)c1cc2cnccc2[nH]1 [N-[4-(1-benzoylpiperidin-4-yl)butyl]-1H-pyrrolo[3,2-c]pyridine-2-carboxamide]	1.4 nM	8.1 nM	
O=C(NCCCCC1CCN(C(=O)c2ccccc2)CC1)c1ccc2nccn2c1 [N-[4-(1-benzoylpiperidin-4-yl)butyl]imidazo[1,2-a]pyridine-6-carboxamide]	5.7 nM	5.5 nM	
O=C(NCCCCC1CCN(C(=O)c2ccccc2)CC1)c1cc2ccncc2s1 [N-[4-(1-benzoylpiperidin-4-yl)butyl]thieno[2,3-c]pyridine-2-carboxamide]	1.2 nM		6.3 nM
O=C(NCCCCC1CCN(C(=O)C2CCCCC2)CC1)c1cc2cnccc2[nH]1 [N-[4-(1-cyclohexanecarbonylpiperidin-4-yl)butyl]-1H-pyrrolo[3,2-c]pyridine-2-carboxamide]	15.5 nM	180 nM	
O=C(NCCCCC1CCN(C(=O)C2CCCCC2)CC1)c1ccc2nccn2c1 [N-[4-(1-cyclohexanecarbonylpiperidin-4-yl)butyl]imidazo[1,2-a]pyridine-6-carboxamide]	0.9 nM	18.1 nM	
O=C(NCCCCC1CCN(C(=O)C2CCCCC2)CC1)c1cc2ccncc2s1 [N-[4-(1-cyclohexanecarbonylpiperidin-4-yl)butyl]thieno[2,3-c]pyridine-2-carboxamide]	72.7 nM	77.9 nM	
CSc1ncccc1C(=O)N1CCC(CCCCNC(=O)c2cc3cnccc3[nH]2)CC1 [N-[4-(1-{[2-(methylsulfanyl)pyridin-3-yl]carbonyl}piperidin-4-yl)butyl]-1H-pyrrolo[3,2-c]pyridine-2-carboxamide]	0.7 nM	8.3 nM	
CSc1ncccc1C(=O)N1CCC(CCCCNC(=O)c2ccc3nccn3c2)CC1 [N-[4-(1-{[2-(methylsulfanyl)pyridin-3-yl]carbonyl}piperidin-4-yl)butyl]imidazo[1,2-a]pyridine-6-carboxamide]	0.7 nM	5.5 nM	
